“Also recorded” adds a separate entry of the source.

Results on 6 molecules are retold here after patent US8748445B2, “Methods for treating glioma” (The UAB Research Foundation, priority 2004, dated 2014).

Assay [1] deals with glioma cells. The assay is described as follows: total intracellular glutathione content in glioma cells. It counts as cell-based, human. As to the method: To determine if limiting cystine uptake via system Xc reduces the total intracellular glutathione content (GSH and glutathione disulfide), intracellular glutathione concentrations were determined in the presence and absence of sulfasalazine.

In assay [2] the test system is glioma cell lines (D-54MG, U-87MG, U-251MG and STTG1) and a primary glioma culture (GBM62). The assay is described as follows: growth curves of glioma cells over 5 days. Format: cell-based, human. As to the method:
To examine whether the depletion of glutathione via inhibition of cystine uptake by system Xc affects the growth of glioma cells, growth curves for 4 glioma cell lines (D-54MG, U-87MG, U-251MG and STTG1) and a primary glioma culture (GBM62) were established.
In the presence of 0.25 mM (S)-4-CPG, growth of D-54MG cells indeed recovered by the addition of fourfold excess of cystine (FIG. 3E), but not with glutamate (FIG. 3D), the second substrate for system Xc.

Assay [3] deals with primary astrocyte cultures. The assay is described as follows: growth of primary astrocyte cultures. The settings on record: (S)-4-CPG 0.25 mM and 0.5 mM (FIG. 3C); sulfasalazine data not shown. Format: cell-based.
Assay [4] has as its system cortical neuronal cultures. The assay is described as follows: survival of cortical neuronal cultures. As to conditions: (S)-4-CPG 0.25 mM and 0.5 mM (FIG. 3C); sulfasalazine data not shown. It counts as cell-based.
For assay [5], the system named is D-54MG glioma cells. The assay is described as follows: BrdU incorporation, ELISA-based assay. It counts as cell-based, human. As to the method: (§1) BrdU incorporation was measured using an ELISA-based assay. D-54MG cells were grown in the presence or absence of inhibitors for 24 hours and pulsed for 2 hours with BrdU. The cells were cultured for an additional 48 hours and the amount of incorporated BrdU was measured using alkaline phosphatase conjugated to anti-BrdU antibodies. […] The inhibition of DNA synthesis was also seen in immunocytochemical studies.

The subject of assay [6] is D-54MG glioma cells. The assay is described as follows: BrdU incorporation, immunocytochemical studies. It counts as cell-based, human. As to conditions: DAPI co-staining (FIG. 4B). On the procedure:
as §1
(Dividing cells build labelled thymidine or BrdU into new DNA.)

The test system of assay [7] is glioma cells. The assay is described as follows: cell cycle: total DNA content by flow cytometry (propidium iodide). It counts as cell-based, human. As to conditions: 0.5 mM (FIG. 4D). As to the method:
To test whether inhibition of cystine uptake affects a specific stage of the cell cycle, changes in total DNA content were measured using flow cytometry following treatment with 0.5 mM (S)-4-CPG and 0.5 mM sulfasalazine. Cells were fixed with para-formaldehyde and stained with the nuclear marker propidium iodide after incubation with drugs.
For orientation: In flow cytometry, cells or beads pass a laser one at a time.

Assay [8] relates to D-54MG glioma cells. The assay is described as follows: chromosomal DNA fragmentation (apoptosis) by flow cytometry. Format: cell-based, human. As to conditions: 1 mM for 3 days; D-54MG (FIG. 5B). On the procedure:
(§2) Because an accumulation of ROS can lead to apoptotic cell death, the ability of system Xc inhibitors to induce apoptosis in glioma cells was examined. […] Often apoptosis is dependent on caspase activities, so it was determined whether the system Xc inhibitors induce activated caspase-3, which is the convergent enzyme in the caspase-dependent signaling cascade. […] With 1 mM sulfasalazine, 90% of cells died over the 5 d incubation (FIG. 5E).

For a further assay, the system named is caspase-3. The assay is described as follows: activated caspase-3 by Western blot analysis. It counts as cell-based, human. As to conditions: 0.5 mM; D-54MG cells (FIG. 5C). As to the method: as §2
Background: A western blot detects proteins with antibodies after separation by electrophoresis.

Assay [9] concerns glioma cells. The assay is described as follows: cell death by flow cytometry using the Live/Dead assay kit. Format: cell-based, human. On the procedure: as §2
Assay [10] concerns glioma cells. The assay is described as follows: rescue from (S)-4-CPG-induced cell death by caspase inhibitor. It counts as cell-based, human. As to conditions: Boc-D-FMK 100 μM; (S)-4-CPG 0.25 mM (FIG. 5D). As to the method: Because an accumulation of ROS can lead to apoptotic cell death, the ability of system Xc inhibitors to induce apoptosis in glioma cells was examined. Exposure of D-54MG glioma cells to 1 mM (S)-4-CPG for 3 days caused 17% of the cell population to be positive for chromosomal DNA fragmentation, a classic manifestation of apoptosis (FIG. 5B). Often apoptosis is dependent on caspase activities, so it was determined whether the system Xc inhibitors induce activated caspase-3, which is the convergent enzyme in the caspase-dependent signaling cascade. […] In the continued presence of 0.5 mM (S)-4-CPG over a 5 d period, 60% of glioma cells died (FIG. 5E). With 1 mM sulfasalazine, 90% of cells died over the 5 d incubation (FIG. 5E).

In a further assay the target is T1, system Xc (Homo sapiens, UniProt Q9UPY5).
T1 construct: reduced ^35S-labeled cystine uptake by 60-80% in glioma lines (d-54MG, U-87MG and U-251MG) and a primary glioma culture (GBM62); endogenous in cells; host or cells: human glioma cell lines D-54MG, U-87MG, U-251MG and primary glioma culture GBM62
T1 sequence (Q9UPY5 1-501): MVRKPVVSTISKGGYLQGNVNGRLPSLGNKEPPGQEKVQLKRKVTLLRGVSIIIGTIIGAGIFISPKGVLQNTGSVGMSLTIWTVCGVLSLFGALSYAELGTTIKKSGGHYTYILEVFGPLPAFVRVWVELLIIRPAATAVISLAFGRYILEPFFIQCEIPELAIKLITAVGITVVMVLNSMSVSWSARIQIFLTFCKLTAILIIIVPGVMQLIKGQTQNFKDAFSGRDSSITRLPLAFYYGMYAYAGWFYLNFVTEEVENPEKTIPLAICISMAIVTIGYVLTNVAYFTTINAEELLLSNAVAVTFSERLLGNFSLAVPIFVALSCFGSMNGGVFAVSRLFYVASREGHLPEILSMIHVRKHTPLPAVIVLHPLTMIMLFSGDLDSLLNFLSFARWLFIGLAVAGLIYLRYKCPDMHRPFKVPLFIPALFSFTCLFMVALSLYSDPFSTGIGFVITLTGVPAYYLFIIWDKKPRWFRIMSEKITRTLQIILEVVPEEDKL
T1 sequence (P08195 1-529 partner): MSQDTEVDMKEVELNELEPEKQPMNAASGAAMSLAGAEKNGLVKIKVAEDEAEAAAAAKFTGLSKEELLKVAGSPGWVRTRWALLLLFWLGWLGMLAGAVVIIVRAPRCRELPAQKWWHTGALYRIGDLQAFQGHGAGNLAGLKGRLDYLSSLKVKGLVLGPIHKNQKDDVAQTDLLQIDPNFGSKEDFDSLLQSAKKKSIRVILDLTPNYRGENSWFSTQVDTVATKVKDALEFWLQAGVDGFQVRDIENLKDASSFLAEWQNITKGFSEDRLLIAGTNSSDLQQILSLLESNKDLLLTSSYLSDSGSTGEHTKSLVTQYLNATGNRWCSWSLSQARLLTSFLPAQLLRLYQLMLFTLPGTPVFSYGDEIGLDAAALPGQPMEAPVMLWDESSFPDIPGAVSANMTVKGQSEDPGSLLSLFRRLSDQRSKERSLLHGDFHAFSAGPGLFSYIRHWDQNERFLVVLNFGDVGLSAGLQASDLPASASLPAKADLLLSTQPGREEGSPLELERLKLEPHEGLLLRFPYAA
The assay is described as follows: 35S-labeled cystine uptake in glioma lines and primary glioma culture. Format: cell-based. As to conditions: 5 mM L glutamate; data not shown. From the text: System Xc is a glutamate-cystine exchanger and can therefore be inhibited if the outward directed gradient for glutamate is eliminated by exposure to high concentrations of extracellular glutamate. The principal hypothesis in this study is that system Xc serves as a pipeline for cellular cystine uptake, with glutamate release being an obligatory by-product. Cystine uptake is the rate-limiting step for the synthesis of GSH, which is the main intracellular antioxidant that protects cells from oxidative stress and resulting reactive oxygen species (ROS) (Jefferies et al., 2003).

For the molecule `N[C@H](C(=O)O)c1ccc(C(=O)O)cc1` [(S)-4-CPG, (S)-4-carboxyphenylglycine], the intracellular glutathione concentration entry in the assay with glioma cells [1] (0.25 mM, glioma cells D-54MG, U-87MG, U-251MG and primary glioma culture GBM64 (FIG. 2F)) is “depleted intracellular glutathione concentration”. The “growth of glioma cells” value in assay [2] (5 days, 0.1 and 0.25 mM (S)-4-CPG, 0.25 and 0.5 mM sulfasalazine, all glioma cell lines and GBM62 (FIGS. 3A, 3B)) was “dose-dependent growth inhibitions”. For the same molecule, the “growth of primary astrocyte cultures” value in assay [3] is “negligible impact; also recorded: Neither (S)-4-CPG (FIG. 3C) nor sulfasalazine (data not shown) affected”. For the same molecule, the “survival/growth of cortical neuronal cultures” value in [4] was “negligible impact; also recorded: Neither (S)-4-CPG (FIG. 3C) nor sulfasalazine (data not shown) affected”. Moreover, the “reduction of incorporation of BrdU into chromosomal DNA” value in the assay on D-54MG glioma cells [5] (0.25 mM, within 48 hours, D-54MG (FIG. 4A)) worked out at 50%. The “reduction of BrdU incorporation relative to 0.25 mM” value in the assay with D-54MG glioma cells [5] (0.5 mM, D-54MG (FIG. 4A)) was “somewhat larger reduction”. Moreover, the “incorporation of BrdU, immunocytochemistry” value with D-54MG glioma cells [6] is reported as “virtually abolished incorporation of BrdU”. Besides, the “cell cycle distribution (total DNA content)” value in the assay on glioma cells [7] was “a reduction of cells in G2 phase and an increase in cells in S phase”. In addition, the “cell population positive for chromosomal DNA fragmentation” value with D-54MG glioma cells [8] is 17%. Also, the “activated form of caspase-3” value in the assay on caspase-3 is “increased the activated form of caspase-3”. For the same molecule, the glioma cells died in the assay with glioma cells [9] (0.5 mM, continued presence over a 5 d period (FIG. 5E)) is on record as 60%.
Take `COC(=O)CC(NC(=O)OC(C)(C)C)C(=O)CF` [Boc-D-FMK, Boc Asp-fluoromethylketone]: the “rescue from cell death induced by (S)-4-CPG” value in the assay with glioma cells [10] is “a significant percentage of cells were rescued from cell death”.
In the case of `N[C@@H](CSSC[C@H](N)C(=O)O)C(=O)O` [cystine], the “growth of D-54MG cells in the presence of (S)-4-CPG” value in assay [2] (0.25 mM (S)-4-CPG plus fourfold excess of cystine (FIG. 3E)) was “recovered”. In addition, in the assay on D-54MG glioma cells [5] (inhibition caused by 0.5 mM (S)-4-CPG and 0.5 mM sulfasalazine (FIG. 4C)), the “reversal of inhibition of BrdU incorporation by exogenous cystine” value is reported as “able to reverse the inhibition of BrdU incorporation”. The “prevention of cell death induced by (S)-4-CPG” value in the assay on glioma cells [9] (0.5 mM (S)-4-CPG with 1 mM cystine (FIG. 5E)) is recorded as “completely prevented”.
With `N[C@@H](CCC(=O)O)C(=O)O` [glutamate], the “competitive inhibition of cystine uptake compared with both drugs” value at system Xc was “comparable”. Also, the “restoration of intracellular glutathione levels” value in the assay with glioma cells [1] (L-glutamate with system Xc inhibitor (FIG. 3D)) was “failed to restore intracellular glutathione levels”. The “reversal of growth inhibition by (S)-4-CPG” value in [2] (1 mM glutamate with 0.25 mM (S)-4-CPG (FIG. 3D)) was “failed to overcome the inhibitory effect”.
Consider `CCOC(=O)CNC(=O)[C@H](CS)NC(=O)CC[C@H](N)C(=O)O` [glutathione ethyl ester], for which the “intracellular glutathione levels on coincubation” value in the assay on glioma cells [1] (sulfasalazine (0.4 mM) treated D-54MG glioma cells (FIG. 6A)) is recorded as “replenished intracellular glutathione levels”. The “D-54MG glioma cell growth on coincubation” value in [2] (after treatment with 0.4 mM sulfasalazine or (S)-4-CPG, GSHest 1 mM) is listed as “completely restored D-54MG glioma cell growth”.
On to vitamin E, for which the “growth of D-54MG glioma cells with free radical scavenger” value in [2] (in the presence of (S)-4-CPG (FIG. 5A)) is listed as “partially restored”.
